Test results from PubChem BioAssay (NCI).
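Protocol summary: plate cells (96-well), add compound at 5 concentrations, incubate 48 h, interpolate endpoints linearly. Definition used: TGI = concentration required for complete inhibition of growth.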 Where a SMILES comes first, the peptide text is derived from it. [ ]: non-standard residue; d: D form. The star is where a group is joined. Boc = CC(C)(C)OC(=O)*; Lac = C[CH](O)C(=O)O; OBn = c1ccc(CO*)cc1

Assays:
Assay in all cases: NCI tumour cell line growth inhibition, 48 h
BT-549 breast = test system: BT-549 breast
DU-145 prostate = test system: DU-145 prostate
HCC-2998 colon = test system: HCC-2998 colon
HCT-116 colon = test system: HCT-116 colon
NCI-H226 lung = test system: NCI-H226 lung
M14 melanoma = test system: M14 melanoma
HOP-92 NSCLC = test system: HOP-92 NSCLC
HCT-15 colon = test system: HCT-15 colon
OVCAR-5 ovarian = test system: OVCAR-5 ovarian
IGROV1 ovarian = test system: IGROV1 ovarian
MOLT-4 leukemia = test system: MOLT-4 leukemia
OVCAR-8 ovarian = test system: OVCAR-8 ovarian
SF-268 CNS = test system: SF-268 CNS
TK-10 renal = test system: TK-10 renal
EKVX NSCLC = test system: EKVX NSCLC

SMILES | TGI (BT-549 breast) [µM] | TGI (DU-145 prostate) [µM] | TGI (HCC-2998 colon) [µM] | TGI (HCT-116 colon) [µM] | TGI (NCI-H226 lung) [µM] | TGI (M14 melanoma) [µM] | TGI (HOP-92 NSCLC) [µM] | TGI (HCT-15 colon) [µM] | TGI (OVCAR-5 ovarian) [µM] | TGI (IGROV1 ovarian) [µM] | TGI (MOLT-4 leukemia) [µM] | TGI (OVCAR-8 ovarian) [µM] | TGI (SF-268 CNS) [µM] | TGI (TK-10 renal) [µM] | TGI (EKVX NSCLC) [µM]
CC(OC(=O)C(Cc1ccccc1)NC(=O)C(Cc1ccccc1)NC(=O)OC(C)(C)C)C(=O)OCc1ccccc1 (stereo not drawn) (Boc-Phe-Phe-[Lac]-OBn; configuration not given here) | > 100 | > 100 | > 100 | > 100 | > 100 | > 100 | > 100 | > 100 | > 100 | > 100 | > 100 | > 100 |  |  | 
C/C(=C\CO)CC/C=C(\C)CNc1c(F)c(F)c(F)c(F)c1F | 22.3 | > 100 | 59.8 | > 100 | 75.1 | > 100 |  | 85.4 | > 100 | > 100 | > 100 | 38 | 67.3 | 85.7 | 98.3
COc1ccc(NC(=S)Nc2cc(C)cc(C)n2)cc1 | > 100 | > 100 |  | > 100 | > 100 | > 100 |  | > 100 | > 100 | > 100 | > 100 | > 100 | > 100 | > 100 | > 100
C=CC[C@H]1O[Si](C(C)(C)C)(C(C)(C)C)[C@H](C)[C@H]1C | > 100 |  | > 100 | > 100 | > 100 | > 100 | > 100 | > 100 | > 100 | > 100 | > 100 | > 100 |  | > 100 | > 100
O=C1C=Cc2c(Br)sc(Br)c21 | > 100 | > 100 | 29.2 | 77.1 |  | 84.4 | 60 | 90.4 | > 100 | 43.5 | 36.8 | > 100 | > 100 | 31.7 | 81
C1=CC2(C=CC13O[C@H](C1CCCCC1)[C@@H](C1CCCCC1)O3)O[C@H](C1CCCCC1)[C@@H](C1CCCCC1)O2 | > 50 | > 50 |  | > 50 | > 50 | > 50 |  | > 50 | > 50 | > 50 | > 50 | > 50 | > 50 | > 50 | 
O=C(NC(=S)Nc1ccc(Br)cc1)c1ccc2c(c1)Sc1ccccc1S2 | 60.6 | 32.4 |  | 51 | 47.7 | 42.9 | 32.5 | > 100 | 40.2 | 30.2 | 26.7 | 34.7 | 46.4 | 30.9 | 
CCCN(CCC)CCc1ccc(OC2=CCN(C)CC2)cc1 | > 100 | > 100 | > 100 | > 100 | > 100 | 29.1 |  | > 100 | > 100 | > 100 | > 100 | > 100 | > 100 | > 100 | > 100
COc1ccc2c(c1)CC[C@@H]1[C@@H]2CC[C@]2(C)C(=O)/C(=C/c3ccc(N(C)C)cc3)C[C@@H]12 | 70.6 | > 100 | > 100 | > 100 |  | > 100 | 69 | > 100 | > 100 |  | > 100 |  | 89.9 | 96.9 | > 100
CN(C)c1ccc(C2CC(c3ccc4ccccc4c3O)=NN2)cc1 (stereo not drawn) | > 100 | > 100 | > 100 | > 100 | > 100 | > 100 | > 100 | > 100 | > 100 | > 100 | 92 | > 100 | > 100 | > 100 | 
Cc1ccc(Nc2nc(=O)c3c4ccccc4n(C(=O)OC(C)(C)C)c3s2)cc1 | 56.5 | > 100 |  |  |  | 44.1 | > 100 | > 100 | 48.3 | > 100 | > 100 | > 100 | 59.3 | 99.9 | > 100
CCN(CC)c1ccc2cc(C(N)=O)c(=N)oc2c1 | > 100 | > 100 | 57.2 | > 100 | > 100 | > 100 | > 100 | > 100 | > 100 | 80.7 | > 100 | > 100 | > 100 |  | 
S=C(N1CCN(c2ccc(Cl)c(Cl)c2)CC1)N1CCN(c2ccc(Cl)c(Cl)c2)CC1 | 30.4 | 28.1 | 26.6 | 19.4 | 23.8 | 32.3 |  | 28.8 | 44.7 | 22.5 | 19.9 | 28.3 | 32.4 | 26.1 | 15.2
Cc1c(-c2ccc(O)cc2)n(CCCCCCNCCOC(=O)NCCCc2ccc(N(CCCl)CCCl)cc2)c2ccc(O)cc12 | 26.7 | 3.97 | 3.52 | 2.94 |  | 3 |  | 3.56 | 28.9 | 5.9 | 2.92 | 2.88 | 3.45 | 6.06 | 9.89
Cc1ccc(-c2n[nH]c(Cc3nc(-c4ccc(C)cc4)n[nH]3)n2)cc1 | > 100 | > 100 | > 100 | > 100 |  | > 100 | > 100 | > 100 | > 100 | > 100 | > 100 | > 100 | > 100 | > 100 | > 100
Cc1ccc(S(=O)(=O)NC(=O)NC(CC(N)=O)C(=O)O)cc1 (stereo not drawn) | > 100 | > 100 |  | > 100 |  | > 100 | > 100 | > 100 | > 100 | > 100 | > 100 | > 100 | > 100 | > 100 | 
Cc1ccc(N=N/C(=N/NC(=O)c2cc(Cl)ccc2O)c2ccc(N(CCC#N)CCC#N)cc2C)cc1 | 88.7 | > 100 | 68.5 | 54.4 | 63.7 | > 100 |  | > 100 | > 100 | > 100 | > 100 | 54.7 | > 100 | 87.2 | > 100
COc1cccc(-c2nc3ccccc3c(=O)[nH]2)c1 | 61.8 | > 100 | 54.3 | 60.1 |  | > 100 | > 100 | 51.6 | > 100 | 58.8 | > 100 | > 100 | 44.8 | 36.9 | 87.7
C[N+](C)(CCCn1ccnc1[N+](=O)[O-])CCCn1ccnc1[N+](=O)[O-] | > 100 | > 100 |  | > 100 | > 100 | > 100 |  | > 100 | > 100 | > 100 | > 100 | > 100 | > 100 | > 100 | > 100
CC1=CC(=O)[C@@H](O)[C@]2(C)[C@H]3[C@@]4(O)OC[C@]35[C@H]([C@@H](C)[C@H]4O)[C@@H](OC(=O)C(C)(C)CO)C(=O)O[C@@H]5C[C@@H]12 | 0.423 |  | 1 | 2.11 | 0.553 | 0.446 |  | 3.1 | 23.3 |  |  | 2.52 | 0.236 |  | 15.1
NC1CC(=O)c2cscc21 (stereo not drawn) | > 100 | > 100 |  | > 100 |  | > 100 | 49.6 | 88.5 | > 100 | > 100 | > 100 | > 100 |  | 33.6 | > 100
CO[C@]1(c2ccc([N+](=O)[O-])cc2)Oc2ccccc2C(=O)[C@@]1(Nc1ccc(C=O)cc1)OC | > 10 | > 10 | > 10 | > 10 | > 10 | > 10 |  | > 10 | > 10 | > 10 | > 10 | > 10 | > 10 | > 10 | > 10
NC(=O)C(=CNC(N)=S)C(N)=O | > 100 | > 100 | > 100 | > 100 | > 100 | > 100 |  | > 100 | > 100 | > 100 | > 100 | > 100 | > 100 |  | > 100
CN1CCc2cc3c(c4c2C1C(O)c1ccccc1-4)OCO3 (stereo not drawn) | 19.4 | > 100 | 22.2 | > 100 |  | 19.5 | 7.22 | 20.3 | 44.4 | 26 | 37.6 | 50.5 | 27.7 | > 100 | 35.4
CN1Cc2ccccc2S(=O)(=O)n2cccc2C1=O | > 100 | > 100 |  | > 100 |  |  | > 100 | > 100 | > 100 | > 100 | > 100 |  |  | > 100 | > 100
